What was measured:
[1] = target: Glutamate receptor ionotropic, AMPA (Rattus norvegicus, UniProt P19490+P19491+P19492+P19493); assay: (§1) In vitro inhibition of binding of [3H]AMPA towards AMPA receptor in rat
Mus musculus [2] = assay: In vivo anticonvulsant effects on electroshock induced convulsion in mice after i.p. administration and 30 min pretreatment.; assay type: functional; conditions: ip
[3] = target: Glutamate receptor ionotropic, NMDA 1 (Rattus norvegicus) (UniProt P35439); assay: In vitro inhibition of binding of [3H]MDL-105519 towards glycine binding site of NMDA receptor in rat at a concentration of 1 uM
[4] = Partition coefficient (logP); assay type: physicochemical; conditions: octanol/water
Mus musculus [5] = assay: In vivo anticonvulsant effects in the electroshock induced convulsion in mice after intraperitoneal administration and 2 hr pretreatment time; assay type: functional; conditions: ip
Glutamate NMDA receptor = assay: In vitro inhibition of binding of [3H]MDL-105519 towards glycine binding site of NMDA receptor in rat
Mus musculus [6] = assay: In vivo anticonvulsant effects in the electroshock induced convulsion in mice after 50 mg/kg intraperitoneal administration and 30 min pretreatment time; assay type: functional
[7] = target: Glutamate receptor ionotropic, NMDA 1 (Rattus norvegicus) (UniProt P35439); assay: In vitro inhibition of binding of [3H]MDL-105,519 towards glycine binding site of NMDA receptor in rat; conditions: concentration not given here
[8] = target: Glutamate receptor ionotropic, AMPA (Rattus norvegicus) (UniProt P19491+P19492+P19493+P19490); assay: as §1; conditions: concentration not given here
Mus musculus [9] = assay: In vivo anticonvulsant effects in the electroshock induced convulsion in mice after 50 mg/kg intraperitoneal administration and 1 hr pretreatment time; assay type: functional
[10] = target: Glutamate receptor ionotropic, AMPA (Rattus norvegicus, UniProt P19491+P19492+P19493+P19490); assay: In vitro inhibition of binding of [3H]-AMPA towards AMPA receptor in rat; No affinity
Mus musculus [11] = assay: In vivo anticonvulsant effects in the electroshock induced convulsion in mice after intraperitoneal administration and 1 hr pretreatment time; assay type: functional; conditions: ip
Mus musculus [12] = assay: In vivo anticonvulsant effects in the electroshock induced convulsion in mice after intraperitoneal administration and 15 min pretreatment time; assay type: functional; conditions: ip

Glutamate receptor ionotropic, AMPA (Rattus norvegicus, UniProt P19491+P19492+P19493+P19490), sequence (P19491 whole entry): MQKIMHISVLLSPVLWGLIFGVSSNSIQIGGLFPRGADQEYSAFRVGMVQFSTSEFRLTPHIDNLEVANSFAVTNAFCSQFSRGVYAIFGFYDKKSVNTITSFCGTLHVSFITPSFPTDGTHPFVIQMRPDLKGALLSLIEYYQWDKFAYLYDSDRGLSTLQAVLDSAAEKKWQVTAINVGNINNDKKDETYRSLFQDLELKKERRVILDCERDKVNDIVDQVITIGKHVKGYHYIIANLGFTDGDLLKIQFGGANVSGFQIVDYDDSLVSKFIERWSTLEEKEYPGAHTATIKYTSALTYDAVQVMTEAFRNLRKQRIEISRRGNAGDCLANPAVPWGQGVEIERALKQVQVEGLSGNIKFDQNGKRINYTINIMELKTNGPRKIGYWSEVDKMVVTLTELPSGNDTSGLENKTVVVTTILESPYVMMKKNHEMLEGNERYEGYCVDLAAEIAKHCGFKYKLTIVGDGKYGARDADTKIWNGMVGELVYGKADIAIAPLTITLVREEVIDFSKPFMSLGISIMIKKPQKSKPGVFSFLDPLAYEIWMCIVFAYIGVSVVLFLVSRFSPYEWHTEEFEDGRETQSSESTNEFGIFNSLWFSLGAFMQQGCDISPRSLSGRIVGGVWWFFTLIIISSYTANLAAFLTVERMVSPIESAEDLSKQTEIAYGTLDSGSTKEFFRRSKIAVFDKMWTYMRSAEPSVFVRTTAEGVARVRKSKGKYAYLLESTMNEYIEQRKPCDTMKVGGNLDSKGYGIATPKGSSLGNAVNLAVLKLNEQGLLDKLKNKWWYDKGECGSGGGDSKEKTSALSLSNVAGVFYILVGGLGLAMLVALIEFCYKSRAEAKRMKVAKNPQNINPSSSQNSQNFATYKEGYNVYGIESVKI
Glutamate receptor ionotropic, AMPA (Rattus norvegicus, UniProt P19491+P19492+P19493+P19490), sequence (P19492 whole entry): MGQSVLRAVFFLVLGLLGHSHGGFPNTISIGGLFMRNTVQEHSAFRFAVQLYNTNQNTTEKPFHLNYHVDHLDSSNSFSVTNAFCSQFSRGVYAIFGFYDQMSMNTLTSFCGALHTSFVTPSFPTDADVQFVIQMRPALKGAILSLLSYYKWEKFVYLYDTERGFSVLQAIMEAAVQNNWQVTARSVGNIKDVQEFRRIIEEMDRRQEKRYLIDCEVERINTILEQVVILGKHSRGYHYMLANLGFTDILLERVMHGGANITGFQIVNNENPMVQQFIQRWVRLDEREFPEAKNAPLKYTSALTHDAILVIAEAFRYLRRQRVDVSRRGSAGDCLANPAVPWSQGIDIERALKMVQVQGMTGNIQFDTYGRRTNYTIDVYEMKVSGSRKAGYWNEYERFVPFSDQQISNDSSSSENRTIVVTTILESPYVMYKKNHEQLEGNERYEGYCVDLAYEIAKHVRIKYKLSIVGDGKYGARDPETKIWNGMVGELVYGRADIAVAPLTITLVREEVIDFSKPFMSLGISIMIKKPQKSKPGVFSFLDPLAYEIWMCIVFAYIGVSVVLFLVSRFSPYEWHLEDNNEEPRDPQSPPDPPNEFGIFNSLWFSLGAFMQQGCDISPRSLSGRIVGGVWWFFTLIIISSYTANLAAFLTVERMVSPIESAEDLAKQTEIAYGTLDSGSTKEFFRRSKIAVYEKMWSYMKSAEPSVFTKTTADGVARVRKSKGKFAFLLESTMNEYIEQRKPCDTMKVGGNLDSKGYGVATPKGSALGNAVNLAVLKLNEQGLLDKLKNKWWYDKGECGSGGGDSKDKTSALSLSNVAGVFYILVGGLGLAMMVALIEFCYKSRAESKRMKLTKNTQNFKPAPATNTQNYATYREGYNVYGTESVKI
Glutamate receptor ionotropic, AMPA (Rattus norvegicus, UniProt P19491+P19492+P19493+P19490), sequence (P19493 whole entry): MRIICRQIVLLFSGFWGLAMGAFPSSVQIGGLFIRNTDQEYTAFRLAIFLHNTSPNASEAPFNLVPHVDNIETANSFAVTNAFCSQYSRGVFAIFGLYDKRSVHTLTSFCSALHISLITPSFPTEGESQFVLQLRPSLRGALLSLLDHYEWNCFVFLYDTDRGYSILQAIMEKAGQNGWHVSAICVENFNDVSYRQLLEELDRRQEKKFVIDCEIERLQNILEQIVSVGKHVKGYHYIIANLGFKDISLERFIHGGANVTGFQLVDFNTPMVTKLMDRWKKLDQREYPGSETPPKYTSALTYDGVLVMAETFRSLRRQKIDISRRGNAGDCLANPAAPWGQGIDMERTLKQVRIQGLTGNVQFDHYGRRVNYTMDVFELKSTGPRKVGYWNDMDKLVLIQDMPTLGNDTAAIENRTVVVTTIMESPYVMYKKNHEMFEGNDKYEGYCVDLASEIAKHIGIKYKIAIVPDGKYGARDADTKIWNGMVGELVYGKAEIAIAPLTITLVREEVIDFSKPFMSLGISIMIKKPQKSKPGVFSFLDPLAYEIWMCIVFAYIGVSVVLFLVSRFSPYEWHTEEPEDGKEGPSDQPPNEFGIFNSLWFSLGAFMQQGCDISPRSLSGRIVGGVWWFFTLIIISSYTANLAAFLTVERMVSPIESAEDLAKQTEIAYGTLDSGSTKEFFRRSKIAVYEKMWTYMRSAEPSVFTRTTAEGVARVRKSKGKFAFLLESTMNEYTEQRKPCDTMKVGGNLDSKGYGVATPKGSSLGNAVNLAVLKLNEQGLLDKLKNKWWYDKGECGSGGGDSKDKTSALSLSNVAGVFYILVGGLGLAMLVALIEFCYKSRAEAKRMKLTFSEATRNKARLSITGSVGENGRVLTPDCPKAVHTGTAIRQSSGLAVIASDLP
Glutamate receptor ionotropic, AMPA (Rattus norvegicus, UniProt P19491+P19492+P19493+P19490), sequence (P19490 whole entry): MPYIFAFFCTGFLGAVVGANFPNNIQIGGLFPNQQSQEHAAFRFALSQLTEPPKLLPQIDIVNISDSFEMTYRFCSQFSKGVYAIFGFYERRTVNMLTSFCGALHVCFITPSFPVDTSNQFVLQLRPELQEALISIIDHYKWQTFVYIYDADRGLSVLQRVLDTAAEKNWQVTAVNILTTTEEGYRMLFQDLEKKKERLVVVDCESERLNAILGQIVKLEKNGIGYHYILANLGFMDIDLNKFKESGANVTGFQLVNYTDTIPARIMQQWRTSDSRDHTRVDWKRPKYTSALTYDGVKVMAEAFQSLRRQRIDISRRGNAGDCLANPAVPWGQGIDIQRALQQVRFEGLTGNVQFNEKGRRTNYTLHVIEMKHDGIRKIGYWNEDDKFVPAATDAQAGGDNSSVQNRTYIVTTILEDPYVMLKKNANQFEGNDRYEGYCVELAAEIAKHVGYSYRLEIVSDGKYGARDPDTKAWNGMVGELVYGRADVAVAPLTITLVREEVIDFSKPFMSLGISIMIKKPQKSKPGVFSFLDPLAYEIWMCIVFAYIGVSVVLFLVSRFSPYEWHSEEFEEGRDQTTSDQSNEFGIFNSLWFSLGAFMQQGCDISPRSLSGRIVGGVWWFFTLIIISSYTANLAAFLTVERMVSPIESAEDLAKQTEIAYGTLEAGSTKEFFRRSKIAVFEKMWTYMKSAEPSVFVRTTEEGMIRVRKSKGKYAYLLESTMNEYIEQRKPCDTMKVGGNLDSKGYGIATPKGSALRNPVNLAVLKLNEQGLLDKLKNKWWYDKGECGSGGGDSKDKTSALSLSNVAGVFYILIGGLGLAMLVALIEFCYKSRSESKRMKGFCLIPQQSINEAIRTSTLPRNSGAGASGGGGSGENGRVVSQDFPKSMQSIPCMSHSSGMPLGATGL

| SMILES | IC50 [1] | ED50 (Mus musculus [2]) | IC50 (Glutamate NMDA receptor) | also measured |
| --- | --- | --- | --- | --- |
| C[C@H](CP(=O)(O)O)NCc1cc([N+](=O)[O-])cc2nc(O)c(O)nc12 | 200 nM | 9 mg/kg | – | inhibition [3]: 6% |
| CCN(Cc1cc([N+](=O)[O-])cc2nc(O)c(O)nc12)[C@@H](C)P(=O)(O)O | 80 nM | 7 mg/kg | – | logP [4]: -3.5; ED50 (Mus musculus [5]): 18 mg/kg |
| CCN(Cc1cc(C(F)(F)F)cc2nc(O)c(O)nc12)[C@@H](C)P(=O)(O)O | 68 nM | 10 mg/kg | 4000 nM | – |
| O=C(O)C1CCN(Cc2cc([N+](=O)[O-])cc3nc(O)c(O)nc23)CC1 | 70 nM | 44 mg/kg | 3900 nM | – |
| COC(=O)C(C)(C)NCc1cc([N+](=O)[O-])cc2nc(O)c(O)nc12 | 1900 nM | – | – | inhibition [3]: -3% |
| O=c1[nH]c2cc([N+](=O)[O-])cc(CNCP(=O)(O)O)c2[nH]c1=O | 290 nM | 7 mg/kg | 1000 nM | – |
| Br.CCN(Cc1cc([N+](=O)[O-])cc2nc(O)c(O)nc12)CP(=O)(O)O | 120 nM | 18 mg/kg | – | inhibition [3]: 24% |
| Br.C[C@H](NCCc1cc([N+](=O)[O-])cc2nc(O)c(O)nc12)C(=O)O | 340 nM | – | – | Protection (Mus musculus [6]): 0%; inhibition [7]: 22% |
| O=C(O)COCc1cc(Br)cc2nc(O)c(O)nc12 | – | – | 110 nM | inhibition [8]: 4%; Protection (Mus musculus [9]): 0% |
| Br.O=C(O)CNCc1cc(Br)cc2nc(O)c(O)nc12 | 4700 nM | – | 40 nM | Protection (Mus musculus [6]): 0% |
| Br.CC[C@H](NCc1cc([N+](=O)[O-])cc2nc(O)c(O)nc12)C(=O)O | 1200 nM | – | – | Protection (Mus musculus [6]): 0%; inhibition [7]: 34% |
| O=C(O)CCCNCc1cc([N+](=O)[O-])cc2nc(O)c(O)nc12 | 610 nM | – | 9000 nM | – |
| O=C(O)COCc1cc([N+](=O)[O-])cc2nc(O)c(O)nc12 | 2000 nM | – | 310 nM | – |
| C[C@H](NCc1cc(Br)cc2nc(O)c(O)nc12)P(=O)(O)O | 1400 nM | 43 mg/kg | – | – |
| C[C@@H](NCc1cc(Br)cc2nc(O)c(O)nc12)P(=O)(O)O | 3000 nM | 12 mg/kg | – | ED50 (Mus musculus [5]): 18 mg/kg |
| CC(=O)N(Cc1cc([N+](=O)[O-])cc2nc(O)c(O)nc12)C(C)P(=O)(O)O (centres undefined) | 1300 nM | – | – | inhibition [3]: 31% |
| Br.CC(C)(NCc1cc([N+](=O)[O-])cc2nc(O)c(O)nc12)C(=O)O | 290 nM | – | – | Protection (Mus musculus [6]): 0%; inhibition [7]: -9% |
| NCc1ccc(NC(=O)C[C@@H]2CCc3cc(Cl)cc4[nH]c(=O)c(=O)n2c34)c(OCC(=O)O)c1 | – | – | 500 nM | IC50 [10]: Not Active |
| Br.O=C(O)CCNCc1cc([N+](=O)[O-])cc2nc(O)c(O)nc12 | 380 nM | 35 mg/kg | 19000 nM | – |

| SMILES | IC50 [1] | ED50 (Mus musculus [2]) | IC50 (Glutamate NMDA receptor) | also measured |
| --- | --- | --- | --- | --- |
| C[C@H](NCc1cc(C(F)(F)F)cc2nc(O)c(O)nc12)P(=O)(O)O | 540 nM | 20 mg/kg | 590 nM | – |
| C[C@@H](NCc1cc(Br)cc2nc(O)c(O)nc12)C(=O)O | 4500 nM | – | 120 nM | – |
| C[C@H](NCc1cc(Br)cc2nc(O)c(O)nc12)C(=O)O | 4300 nM | – | 2200 nM | – |
| O=[N+]([O-])c1cc(CNCCP(=O)(O)O)c2nc(O)c(O)nc2c1 | 640 nM | 18 mg/kg | – | inhibition [3]: 8% |
| CC(OCc1cc([N+](=O)[O-])cc2nc(O)c(O)nc12)C(=O)O (centres undefined) | 1300 nM | – | 420 nM | – |
| O=C(O)CCNCc1cc(Br)cc2nc(O)c(O)nc12 | 3800 nM | – | – | inhibition [3]: 37% |
| C[C@@H](NCc1cc([N+](=O)[O-])cc2[nH]c(=O)c(=O)[nH]c12)[P+]([O-])(O)O | 170 nM | 3 mg/kg | 32 nM | – |
| C[C@H](NCc1cc([N+](=O)[O-])cc2nc(O)c(O)nc12)P(=O)(O)O | 380 nM | 8 mg/kg | – | inhibition [3]: 51% |
| O=P(O)(O)CNCc1cc(Br)cc2nc(O)c(O)nc12 | 2400 nM | – | 100 nM | Protection (Mus musculus [6]): 0% |
| O=C(O)CSCc1cc(Br)cc2nc(O)c(O)nc12 | – | – | 120 nM | inhibition [8]: 22%; Protection (Mus musculus [9]): 0% |
| Br.C[C@H](NCc1cc([N+](=O)[O-])cc2nc(O)c(O)nc12)C(=O)O | 310 nM | – | 1700 nM | logP [4]: -1.93; ED50 (Mus musculus [11]): 19 mg/kg; Protection (Mus musculus [9]): 0% |
| CCN(Cc1cc([N+](=O)[O-])cc2nc(O)c(O)nc12)[C@H](C)P(=O)(O)O | 310 nM | 26 mg/kg | – | inhibition [3]: 25% |
| O=P(O)(O)CNCc1cc(C(F)(F)F)cc2nc(O)c(O)nc12 | 2000 nM | 30 mg/kg | 300 nM | – |
| CCC(NCc1cc(Br)cc2nc(O)c(O)nc12)P(=O)(O)O (centres undefined) | – | – | 45 nM | inhibition [8]: 16%; Protection (Mus musculus [6]): 20% |
| Br.O=C(O)CNCc1cc([N+](=O)[O-])cc2nc(O)c(O)nc12 | 160 nM | – | 760 nM | ED50 (Mus musculus [12]): 32 mg/kg |
| C[C@@H](CP(=O)(O)O)NCc1cc([N+](=O)[O-])cc2nc(O)c(O)nc12 | 200 nM | 10 mg/kg | – | inhibition [3]: 15% |
| C[C@@H](NCc1cc(C(F)(F)F)cc2[nH]c(=O)c(=O)[nH]c12)P(=O)(O)O | 1200 nM | 8 mg/kg | 6 nM | – |
| Br.C[C@@H](NCc1cc([N+](=O)[O-])cc2nc(O)c(O)nc12)C(=O)O | 380 nM | – | 1300 nM | Protection (Mus musculus [6]): 0% |

Reference: ChEMBL document CHEMBL1132024, “N-phosphonoalkyl-5-aminomethylquinoxaline-2,3-diones: in vivo active AMPA and NMDA(glycine) antagonists” (Bioorg Med Chem Lett, 1999)
